# Reference: patent EP1889615A2, “Formulations for oral administration with a health promoting effect on the osteoarticular and muscleskeleton apparatus” (ROTTAPHARM S.P.A., priority 2006, dated 2008)
# pEC50, pIC50: −log10 of the molar value.
# Legend:
# TXB2 = experiment: Human blood: coagulation-induced thromboxane (TXB2) production, marker of platelet COX-1 activity; assay type: cell-based; conditions: for %Diff. vs control: TXB2
# Protocol: The test products have been added to samples of human blood, collected from healthy volunteers, and then said samples allowed to coagulate by leaving to stand for 1 hour at 37°C. The thromboxane (TXB2) in the serum, a marker of platelet COX-1 activity (Panara et al. 1999], has been determined using a specific RIA method.
# IL-1 = experiment: Human blood: LPS stimulated production (expression) of IL-1; assay type: cell-based
# Protocol: (§1) 200 µl samples have been stimulated with 1 µg/ml of LPS for 24 hours at 37°C [Hartel et al. 2004], in the presence of the test products. The cytokines released into the plasma have been analysed using a multiple system for cytokines (Bio-Plex, Bio-Rad Laboratories, Milan, Italy) allowing the simultaneous determination of IL-1, TNFα and IL-10.
# [1] = system: zymosan-induced rat paw hyperalgesia; experiment: Rat: analgesic activity (Randall and Selitto) on zymosan-induced paw hyperalgesia; assay type: in vivo; conditions: for % Diff. vs. control: analgesia; for % Diff. vs. control / Diff. vs. control / Analgesia: oral; for Diff. vs. control: difference of the Analgesia Δgx24h values; for Analgesia: area under analgesimetric curve 0-24 h
# Protocol: The analgesic activities of the test products have been evaluated using the technique of Randall and Selitto [1957] on hyperalgesia induced in rat paw by a subplantar injection of 4 mg di zymosan in 0.1 ml of isotonic saline. The mechanical nociceptive threshold has been determined using an analgesimeter (Ugo Basile, Varese, Italy) at 0, 1, 2, 4, 6 and 24 hours following the injection of zymosan. The analgesimeter measures the weight (in grams) applied to the paw which causes the reflex retraction of the paw itself. The nociceptive threshold has been expressed as the difference (in grams) in nociceptive threshold at time 0. The test products have been administered orally 30 minutes prior to the injection of zymosan. Celecoxib, a known COX-2 inhibitor, widely used clinically as an analgesic-anti-inflammatory, and administered orally at a dose of 10 mg/kg, has been used as a reference standard. In order to express the treatment effects numerically, the areas under the curves of the analgesimetric weight increase on the inflamed paw have been measured from 0 to 24 hours, thus giving the measurement in g x 24 hours of the area under the analgesimetric curve.
# IL-10 = experiment: Human blood: LPS stimulated production (expression) of IL-10; assay type: cell-based
# Protocol: as §1, with “Venous blood has been collected from healthy volunteers and treated with 0.38% Na citrate in order to prevent coagulation. 200 µl” for “200 µl”
# PGE2 [2] = experiment: Human blood: production of PGE2 stimulated by 100 µg/ml LPS, marker of monocyte COX-2 activity; assay type: cell-based
# Protocol: Human blood has been collected from health volunteers and made uncoagulable with 0.38% Na citrate. The test products have been added to 200 µl samples and then said samples stimulated with 100 µg/ml of LPS for 24 hours at 37°C. The PGE2 in the plasma, a marker of monocyte COX-2 activity [Panara et al. 1999], has been determined using a specific RIA method.
# PGE2 [3] = experiment: Rabbit chondrocytes: IL-1β-stimulated production of PGE2 (a COX-2 marker); assay type: cell-based, New Zealand white rabbits; conditions: for %Diff. vs control: PGE2, control = IL-1β
# Protocol: Joint cartilage chondrocytes, obtained from New Zealand white rabbits, have been cultured using the technique described by Berenbaum [1994]. […] The test products have been added 20 minutes prior to stimulation. On completion of stimulation, the supernatant liquid has been collected and stored at -80°C until analysis. PGE2 in the culture medium has been measured using a radio-immunological method. The production of PGE2 in this model is a marker of the activity of the cyclooxygenases induced (COX-2) in cartilage from the proinflammatory stimulus represented by IL-1β.
# [4] = system: zymosan-induced rat paw oedema; experiment: Rat: anti-inflammatory activity on zymosan-induced paw oedema; assay type: in vivo; conditions: for % Diff. vs. control / Diff. vs. control: oedema; for % Diff. vs. control / Diff. vs. control / Oedema: oral; for Oedema: area under curve 0-24 h
# Protocol: The anti-inflammatory activities of the test products have been assessed according to Di Rosa et al. [1971] on rat paw oedema induced by a subplantar injection of 4 mg di zymosan in 0.1 ml of isotonic saline. Paw volume has been measured pletismographically at 0, 1, 2, 4, 6 and 24 hours following the injection of zymosan, and expressed in ml of difference, with respect to the baseline volume. The test products, suspended in 5 ml/kg of 5% methylcellulose, have been administered with a gastric probe 30 minutes prior to the injection of zymosan. Celecoxib, a known COX-2 inhibitor, widely used clinically, and administered orally at a dose of 10 mg/kg, has been used as a reference standard. In order to express the treatment effects numerically, the areas under the curves of paw volume increase from 0 to 24 hours have been measured, thus giving the measurement of paw oedema in mlx24 hours.
# TNFα = experiment: Human blood: LPS stimulated production (expression) of TNFα; assay type: cell-based
# Protocol: as §1
# [5] = system: tibial joint cartilage explants; experiment: Rabbit cartilage explants: protection against IL-1β-induced cartilage degradation (GAG release); conditions: for %Diff. vs baseline: GAG release, protection positive
# Protocol: The explants (2 x 2 mm) have been transferred to plates with wells and equilibrated for 48 hours at 37°C with high glucose DMEM plus 10% FCS and 50 µg/ml gentamycin. Explants have then been stimulated for 48 hours with 1 ng/ml IL-1β in aphenolic DMEM, 1 g/l glucose, 50 µg/ml gentamycin and 1% BSA. IL-1β elicits strong activation of the enzymes which depolymerise the proteoglycan aggregates of the cartilage matrix, resulting in its degradation, with the release of the breakdown products, mainly represented by the various glycosaminoglycans (GAG) making up the proteoglycan aggregates, into the culture liquid. […] In order to assess the effects of the test products on IL-1β-induced cartilage degradation, they have been added to the cartilage explants 20 minutes prior to stimulation with IL-1β. Cartilage degradation has been assessed by expressing the GAG released into the culture liquid as a percentage of the total GAG measured following complete digestion of the cartilage explants using papain.
# [6] = system: methicillin and penicillin-resistant strains of Staphylococcus aureus; conditions: cited from earlier work
# [7] = system: Mycobacterium tuberculosis; conditions: cited from earlier work
# [8] = 10 µM (Man, ASS as mangostin; ASS 10 = Man 10 + CGS 100)
# [9] = 30 µM (Man, ASS as mangostin; ASS 30 = Man 30 + CGS 300)
# [10] = oral doses of 40, 133 and 400 mg/kg
# [11] = 1 µM (Man, ASS as mangostin; ASS 1 = Man 1 + CGS 10)
# [12] = 10 mg/kg (Man, ASS as mangostin; ASS 10 = Man 10 + CGS 133)
smiles,measurement,setting,value
"N[C@H]1C(O)O[C@H](CO)[C@@H](O)[C@@H]1O.N[C@H]1C(O)O[C@H](CO)[C@@H](O)[C@@H]1O.O=S(=O)(O)O.[Cl-].[Cl-].[Na+].[Na+] (stereo partly shown) [CGS, Crystalline Glucosamine Sulphate]",TXB2,TXB2; [8],124 ng/mL
same,TXB2,TXB2; 30 µM,118 ng/mL
same,TXB2,TXB2; 100 µM,125 ng/mL
same,effect on the release of TXB2,"TXB2; Man 1, 3, 10, CGS 10, 30, 100 µM, Ass 1, 3, 10",no significant stimulatory or inhibitory activity
same,%Diff. vs control,TXB2; [8],3.3%
same,%Diff. vs control,TXB2; 30 µM,-1.7%
same,%Diff. vs control,TXB2; 100 µM,4.2%
same,IL-1,IL-1; [9],4.65 ng/mL
same,IL-1,IL-1; 100 µM,4.72 ng/mL
same,IL-1,IL-1; 300 µM,4.69 ng/mL
same,%Diff. vs control,"IL-1; IL-1, 30 µM (Man, ASS as mangostin; ASS 30 = Man 30 + CGS 300)",2.1%
same,%Diff. vs control,"IL-1; IL-1, 100 µM",3.6%
same,%Diff. vs control,"IL-1; IL-1, 300 µM",3.1%
same,inhibitory activity,"IL-1; IL-1, up to a concentration of 300 µM",no appreciable inhibitory activity
same,% Diff. vs. control,[1]; 40 mg/kg,1%
same,% Diff. vs. control,[1]; 133 mg/kg,-6%
same,% Diff. vs. control,[1]; 400 mg/kg,-4%
same,Diff. vs. control,[1]; 40 mg/kg,7
same,Diff. vs. control,[1]; 133 mg/kg,-59
same,Diff. vs. control,[1]; 400 mg/kg,-46
same,analgesic activity,[1]; [10],no significant analgesic activity
same,Analgesia,[1]; 40 mg/kg,1079 Δgx24h
same,Analgesia,[1]; 133 mg/kg,1012 Δgx24h
same,Analgesia,[1]; 400 mg/kg,1026 Δgx24h
same,IL-10,IL-10; [9],0.25 ng/mL
same,IL-10,IL-10; 100 µM,0.26 ng/mL
same,IL-10,IL-10; 300 µM,0.27 ng/mL
same,%Diff. vs control,"IL-10; IL-10 (increase positive), 30 µM (Man, ASS as mangostin; ASS 30 = Man 30 + CGS 300)",-3.5%
same,%Diff. vs control,"IL-10; IL-10, 100 µM",1.6%
same,%Diff. vs control,"IL-10; IL-10, 300 µM",6.3%
same,stimulatory or inhibitory activity,"IL-10; IL-10, concentrations tested 30, 100 and 300 µM",no significant stimulatory or inhibitory activity
same,PGE2,PGE2 [2]; [8],22.7 ng/mL
same,PGE2,PGE2 [2]; 30 µM (ASS as mangostin; ASS 30 = Man 30 + CGS 300),24.3 ng/mL
same,PGE2,PGE2 [2]; 100 µM,23.5 ng/mL
same,%Diff. vs control,"PGE2 [2]; PGE2, 10 µM (Man, ASS as mangostin; ASS 10 = Man 10 + CGS 100)",-7.3%
same,%Diff. vs control,"PGE2 [2]; PGE2, 30 µM (ASS as mangostin; ASS 30 = Man 30 + CGS 300)",-0.8%
same,%Diff. vs control,"PGE2 [2]; PGE2, 100 µM",-4.1%
same,stimulatory or inhibitory activity,"PGE2 [2]; PGE2, concentrations of 10, 30 or 100 µM",no significant stimulatory or inhibitory activity
same,PGE2,PGE2 [3]; [11],200 ng/mL
same,PGE2,PGE2 [3]; 3 µM (Man as mangostin),180 ng/mL
same,PGE2,PGE2 [3]; 10 µM,210 ng/mL
same,%Diff. vs control,PGE2 [3]; [11],6.4%
same,%Diff. vs control,PGE2 [3]; 3 µM (Man as mangostin),-4.3%
same,%Diff. vs control,PGE2 [3]; 10 µM,-11.7%
same,inhibitory or stimulatory activity,"PGE2 [3]; PGE2, concentrations of 1, 3 or 10 µM",no significant inhibitory or stimulatory activity
same,% Diff. vs. control,[4]; 40 mg/kg,-1%
same,Diff. vs. control,[4]; 40 mg/kg,-0.1 mlx24 hours
same,% Diff. vs. control,[4]; 133 mg/kg,-2%
same,Diff. vs. control,[4]; 133 mg/kg,-0.3 mlx24 hours
same,% Diff. vs. control,[4]; 400 mg/kg,-4%
same,Diff. vs. control,[4]; 400 mg/kg,-0.6 mlx24 hours
same,anti-inflammatory activity,[4]; [10],no significant anti-inflammatory activity
same,Oedema,[4]; 40 mg/kg,15.6 Δmlx24h
same,Oedema,[4]; 133 mg/kg,15.4 Δmlx24h
same,Oedema,[4]; 400 mg/kg,15.2 Δmlx24h
same,TNFα,TNFα; [9],14.70 ng/mL
same,TNFα,TNFα; 100 µM,13.80 ng/mL
same,TNFα,TNFα; 300 µM,12.70 ng/mL
same,%Diff. vs control,"TNFα; TNFα, 30 µM (Man, ASS as mangostin; ASS 30 = Man 30 + CGS 300)",-7.9%
same,%Diff. vs control,"TNFα; TNFα, 100 µM",-13.5%
same,%Diff. vs control,"TNFα; TNFα, 300 µM",-20.4%
same,pIC50,"TNFα; TNFα, Man/Eman and ASS as mangostin concentration",< 3.52
same,inhibitory activity,"TNFα; TNFα, even at concentrations of 300 µM",weakly inhibitory
same,protection against IL-1β-induced cartilage degradation,[5]; 1 µM,41%
same,%GAG released,[5]; [11],41%
same,%GAG released,[5]; 3 µM,25%
same,%GAG released,[5]; 10 µM,16%
same,protection against IL-1β-induced cartilage degradation,[5]; 3 mM CGS,64%
same,protection against IL-1β-induced cartilage degradation,[5]; 10 mM CGS,77%
same,%Diff. vs baseline,[5]; [11],40.6%
same,%Diff. vs baseline,[5]; 3 µM,63.8%
same,%Diff. vs baseline,[5]; 10 µM,76.8%
same,pEC50,"[5]; read-out: PC50, 50% protective concentration, ASS with reference to CGS",5.64
"C[C@@H]1C[C@@H]([C@H](O)CC2CC(=O)NC(=O)C2)C(=O)[C@@H](C)C1 [CHX, Cycloheximide]",%GAG released,[5]; CHX 2.5 µg/ml,12%
same,%Diff. vs baseline,[5]; CHX 2.5 µg/ml,82.6%
"Cc1ccc(-c2cc(C(F)(F)F)nn2-c2ccc(S(N)(=O)=O)cc2)cc1 [CLX, Celecoxib]",% Diff. vs. control,[1]; [12],-46%
same,Diff. vs. control,[1]; [12],-497
same,Analgesia,[1]; [12],574 Δgx24h
same,% Diff. vs. control,[4]; [12],-30%
same,Diff. vs. control,[4]; [12],-4.7 mlx24 hours
same,Oedema,[4]; [12],11.8 Δmlx24h
COc1c(O)cc2oc3cc(O)c(CC=C(C)C)c(O)c3c(=O)c2c1CC=C(C)C [α-mangostin],MIC,[6],1.6 µg/mL
same,MIC,[7],6.25 µg/mL
COc1cc2oc3cc(O)c(OC)c(CC=C(C)C)c3c(=O)c2c(O)c1CC=C(C)C [β-mangostin],MIC,[6],1.6 µg/mL
same,MIC,[7],6.25 µg/mL
